Data on 17 molecules can be found in patent US20110034526A1, “Benzimidazole Compounds” (Wyeth LLC, priority 2007, published 2011).

SMILES strings stand for the structures. Like-named read-outs stand apart in the source and are kept apart here.

One assay has as its target T1, human LXRβ (Homo sapiens, UniProt P55055).
T1 construct: biotin (biotinylated); made in house; host or cells: E. coli (crude extract)
T1 sequence (P55055 1-460): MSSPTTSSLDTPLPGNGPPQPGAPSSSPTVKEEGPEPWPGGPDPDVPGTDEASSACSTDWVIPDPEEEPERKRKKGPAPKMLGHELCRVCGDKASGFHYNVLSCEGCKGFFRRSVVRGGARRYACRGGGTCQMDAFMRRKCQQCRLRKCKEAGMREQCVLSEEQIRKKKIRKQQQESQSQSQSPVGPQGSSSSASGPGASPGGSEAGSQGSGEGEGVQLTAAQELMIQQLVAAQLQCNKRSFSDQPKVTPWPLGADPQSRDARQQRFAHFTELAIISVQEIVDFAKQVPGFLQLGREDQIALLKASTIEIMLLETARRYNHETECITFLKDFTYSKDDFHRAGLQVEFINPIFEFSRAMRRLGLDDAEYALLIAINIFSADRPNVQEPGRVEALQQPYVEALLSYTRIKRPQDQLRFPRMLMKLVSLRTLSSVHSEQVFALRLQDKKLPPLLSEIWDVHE
In words: Ligand-binding test procedure for human LXRβ (3H T0901317 tracer, flash plates). On the procedure:
Receptor source: E. coli extracted from cells expressing biotinylated hLXRβ. Extract was made in a similar buffer as above, but with 50 mM TRIS.
Washed streptavidin and coated flash plates with wash buffer. Diluted receptor extract to give Bmax ˜4000 cpm and add to the wells. Wrapped the plates in aluminum foil and stored them at +4° C. overnight.
(§1) Made a dilution series in DMSO of the test ligands. Made a 5 nM solution of the radioactive tracer in buffer. Mixed 250 μl diluted tracer with 5 μl of the test ligand from each concentration of the dilution series. Washed the receptor-coated flash plates. Added 200 μl per well of the ligand/radiolabel mixture to the receptor-coated flash plates. Wrapped the plates in aluminum foil and incubate at +4° C. over night.
Aspirated wells, and washed the flashed plates. Sealed the plate. Measured the remaining radioactivity in the plate.

The next assay concerns the target T2, human LXRα (Homo sapiens, UniProt Q13133).
T2 construct: biotin (biotinylated); made in house; host or cells: E. coli (crude extract)
T2 sequence (Q13133 1-447): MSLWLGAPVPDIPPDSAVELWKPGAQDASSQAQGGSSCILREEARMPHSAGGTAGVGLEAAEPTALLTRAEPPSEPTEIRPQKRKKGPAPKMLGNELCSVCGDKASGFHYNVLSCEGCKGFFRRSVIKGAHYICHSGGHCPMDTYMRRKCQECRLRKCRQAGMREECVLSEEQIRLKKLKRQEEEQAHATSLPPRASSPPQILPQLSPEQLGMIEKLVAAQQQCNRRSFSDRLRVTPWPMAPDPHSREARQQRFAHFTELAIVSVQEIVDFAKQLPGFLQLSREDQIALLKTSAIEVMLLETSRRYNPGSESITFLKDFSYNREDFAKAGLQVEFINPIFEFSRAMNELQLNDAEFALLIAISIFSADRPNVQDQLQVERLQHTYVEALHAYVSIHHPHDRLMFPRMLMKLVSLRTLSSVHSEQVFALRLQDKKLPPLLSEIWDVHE
Briefly: Ligand-binding test procedure for human LXRα (3H T0901317 tracer, flash plates). The following applies: biotinylated hLXRα, tracer 3H T0901317. On the procedure:
Receptor source: E. coli extract from cells expressing biotinylated hLXRcc. Extract was made in a similar buffer as above, but with 50 mM TRIS.
Washed streptavidin and coated flash plates with wash buffer. Diluted receptor extract to give Bmax ˜4000 cpm and add to the wells. Wrapped the plates in aluminum foil and stored them at +4° C. over night.
as §1
Aspirated wells, and wash the flashed plates. Sealed the plate. Measured the remaining radioactivity in the plate.

The next assay relates to ABCA1 gene. In words: Quantitative analysis of ABCA1 gene regulation in THP-1 cells (real-time PCR). It is filed as cell-based, human. The following applies: read-out: EC50 ABCA1. On the procedure: The compounds of formula (I) effect on the regulation of the ABCA1 gene was evaluated using the following procedure.
The THP-1 monocytic cell line (ATCC # TIB-202) was obtained from American Type Culture Collection (Manassas, Va.) and cultured in RPMI 1640 medium (Gibco, Carlsbad, Calif.) containing 10% FBS, 2 mM L-glutamine, and 55 uM beta-Mercaptoethanol (BME). […] Differentiated THP-1 cells were treated with test compounds or ligands dissolved in DMSO (Sigma, D-8779) in culture medium lacking phorbal ester. […] Unstimulated cells treated with vehicle were included as negative controls on each plate. An LXR agonist reference, N-(2,2,2-trifluoro-ethyl)-N-[4-(2,2,2-trifluoro-1-hydroxy-1-trifluoromethyl-ethyl)-phenyl]-benzenesulfonamide (Schultz, Joshua R., Genes & Development (2000), 14(22), 2831-2838), was dosed at 1.0 uM and served as a positive control. […] Results of antagonist analysis are expressed as % antagonism and IC50 (in μM).
Total cellular RNA was isolated from treated cells cultured in 96-well plates using PrepStation 6100 (Applied Biosystems, Foster City, Calif.), according to the manufacturer's recommendations. RNA was resuspended in ribonuclease-free water and stored at −70° C. prior to analysis. RNA concentrations were quantitated with RiboGreen test procedure, #R-11490 (Molecular Probes, Eugene, Oreg.).
Gene-specific mRNA quantitation was performed by real-time PCR with the Perkin Elmer Corp. chemistry on an ABI Prism 7700 Sequence detection system (Applied Biosystems, Foster City, Calif.) according to the manufacturer's instructions. Samples (50-100 ng) of total RNA were assayed in duplicate or triplicate in 50 μl reactions using one-step RT-PCR and the standard curve method to estimate specific mRNA concentrations. Sequences of gene-specific primer and probe sets were designed with Primer Express Software (Applied Biosystems, Foster City, Calif.). […] RT and PCR reactions were performed according to PE Applied Biosystem's protocol for Taqman Gold RT-PCR or Qiagen's protocol for Quantitect probe RT-PCR. Relative levels of ABCA1 mRNA are normalized using GAPDH mRNA or 18S rRNA probe/primer sets purchased commercially (Applied Biosystems, Foster City, Calif.).
Mean, standard deviation and statistical significance of duplicate evaluations of RNA samples were assessed using ANOVA, one-way analysis of variance using SAS analysis.
(In general: In qPCR the cycle at which signal appears reflects the starting amount.)

[1] abbreviates: Gene regulation by LXR (Human), differentiated THP-1 cells, 18 hrs, ABCA1 mRNA.

As a reminder, the IC50 is the concentration needed to halve the response being measured. By EC50 is commonly meant the concentration giving half of the maximal effect.

Consider `CCCc1nc2c(C(F)(F)F)cccc2n1-c1cccc(Oc2cccc(S(C)(=O)=O)c2)c1` [Example 27, 1-{3-[3-(methylsulfonyl)phenoxy]phenyl}-2-propyl-4-(trifluoromethyl)-1H-benzimidazole], for which the figures for the IC50 at human LXRβ and at human LXRα were 0.9 nM and 3.9 nM, respectively. Moreover, the EC50 with ABCA1 gene (setting [1]) came to 22 nM.

For `CS(=O)(=O)c1cccc(Oc2cccc(-n3c(C(F)F)nc4c(C(F)(F)F)cccc43)c2)c1` [Example 33, 2-(difluoromethyl)-1-{3-[3-(methylsulfonyl)phenoxy]phenyl}-4-(trifluoromethyl)-1H-benzimidazole], the IC50 was determined as 2 nM on human LXRβ and 36 nM on human LXRα. Further, in the assay with ABCA1 gene (setting [1]), the EC50 worked out at 190 nM.

Turning to `Cc1nc2c(C(F)(F)F)cccc2n1-c1cccc(Oc2cccc(S(=O)(=O)CCCN)c2)c1` [Example 37, 3-[(3-{3-[2-methyl-4-(trifluoromethyl)-1H-benzimidazol-1-yl]phenoxy}phenyl)sulfonyl]propan-1-amine], the IC50 at human LXRβ came to 41 nM; on human LXRα it was 1470 nM. The EC50 in the assay with ABCA1 gene (setting [1]) is 4700 nM.

On to `Cc1nc2c(C(F)(F)F)cccc2n1-c1cccc(Oc2cccc(S(=O)(=O)C3CC3)c2)c1` [Example 38, 1-{3-[3-(cyclopropylsulfonyl)phenoxy]phenyl}-2-methyl-4-(trifluoromethyl)-1H-benzimidazole], for which the IC50 was determined as 5.8 nM on human LXRβ and 141 nM on human LXRα. The EC50 with ABCA1 gene (setting [1]) worked out at 650 nM.

For `Cc1nc2c(Cl)cccc2n1-c1cccc(Oc2ccc(S(C)(=O)=O)cc2)c1` [Example 48, 4-chloro-2-methyl-1-{3-[4-(methylsulfonyl)phenoxy]phenyl}-1H-benzimidazole], the IC50 on human LXRβ came out at 6 nM; on human LXRα, 64 nM. Moreover, in the assay on ABCA1 gene (Homo sapiens, THP-1, 18 h), the EC50 was 1120 nM.

`CCS(=O)(=O)c1cccc(Oc2ccc(-n3c(C)nc4c(C(F)(F)F)cccc43)cc2)c1` [Example 65, 1-{4-[3-(ethylsulfonyl)phenoxy]phenyl}-2-methyl-4-(trifluoromethyl)-1H-benzimidazole]: the IC50 at human LXRβ is 1.3 nM; at human LXRα it was 7.2 nM. The EC50 with ABCA1 gene (setting [1]) came out at 355 nM.

Turning to `Cc1nc2c(C(F)(F)F)cccc2n1-c1ccc(Oc2cc(F)cc(S(C)(=O)=O)c2)cc1` [Example 66, 1-{4-[3-fluoro-5-(methylsulfonyl)phenoxy]phenyl}-2-methyl-4-(trifluoromethyl)-1H-benzimidazole], the IC50 on human LXRβ was determined as 51 nM; at human LXRα, 261 nM. For the same molecule, the concentration for a half-maximal effect (EC50) in the assay on ABCA1 gene (setting [1]) is 355 nM.

For the molecule `CCc1nc2c(C(F)(F)F)cccc2n1-c1ccc(Oc2cccc(S(C)(=O)=O)c2)cc1` [Example 67, 2 ethyl-1-{4-[3-(methylsulfonyl)phenoxy]phenyl}-4-(trifluoromethyl)-1H-benzimidazole], the values for the 50% inhibitory concentration (IC50) at human LXRβ and at human LXRα were 99 nM and 197 nM, respectively. The EC50 in the assay with ABCA1 gene (setting [1]) was determined as 846 nM.

As to `CCc1nc2c(C(F)(F)F)cccc2n1-c1ccc(Oc2cc(F)cc(S(C)(=O)=O)c2)cc1` [Example 69, 2-ethyl-1-{4-[3-fluoro-5-(methylsulfonyl)phenoxy]-phenyl}-4-(trifluoromethyl)-1H-benzimidazole], the IC50 was determined as 20 nM at human LXRβ and 280 nM at human LXRα. Moreover, the EC50 with ABCA1 gene (setting [1]) was found to be 245 nM.

With `CCS(=O)(=O)c1cccc(Oc2ccc(-n3c(C(F)(F)F)nc4c(C(F)(F)F)cccc43)cc2)c1` [Example 71, 1-{4-[3-(ethylsulfonyl)phenoxy]phenyl}-2,4-bis(trifluoromethyl)-1H-benzimidazole], the IC50 at human LXRβ turned out to be 83 nM; on human LXRα, 1100 nM. Besides, the 50% effective concentration (EC50) in the assay with ABCA1 gene (Homo sapiens, THP-1, 18 h) was found to be 290 nM.

With `CC(C)S(=O)(=O)c1cccc(Oc2ccc(-n3c(C(F)(F)F)nc4c(C(F)(F)F)cccc43)cc2)c1` [Example 73, 1-{4-[3-(isopropylsulfonyl)phenoxy]phenyl}-2,4-bis(trifluoromethyl)-1H-benzimidazole], the results for the IC50 on human LXRβ and at human LXRα were 47 nM and 800 nM, respectively. The EC50 in the assay on ABCA1 gene (setting [1]) was determined as 470 nM.

As for `COc1ccc(-n2c(C(F)(F)c3ccccc3)nc3c(C(F)(F)F)cccc32)cc1` [Example 74, 2-[difluoro(phenyl)methyl]-1-(4-methoxyphenyl)-4-(trifluoromethyl)-1H-benzimidazole], the half-maximal inhibitory concentration (IC50) on human LXRβ was determined as 32 nM; at human LXRα, 635 nM. Moreover, the 50% effective concentration (EC50) in the assay with ABCA1 gene (setting [1]) was 440 nM.

On to `Cc1nc2c(C(F)(F)F)cccc2n1-c1cccc(-c2cccc(S(C)(=O)=O)c2)c1` [Example 75, 2-methyl-1-[3′-(methylsulfonyl)biphenyl-3-yl]-4-(trifluoromethyl)-1H-benzimidazole], for which the figures for the half-maximal inhibitory concentration (IC50) at human LXRβ and on human LXRα were 12.7 nM and 304 nM, respectively. The EC50 in the assay with ABCA1 gene (Homo sapiens, THP-1, 18 h) is 215 nM.

`Cc1nc2c(C(F)(F)F)cccc2n1-c1cccc(Oc2cccc(S(=O)(=O)CCCS(C)(=O)=O)c2)c1` [Example 76, 2-methyl-1-[3-(3-{[3-(methylsulfonyl)propyl]sulfonyl}phenoxy)phenyl]-4-(trifluoromethyl)-1H-benzimidazole]: the IC50 on human LXRβ was found to be 20 nM; on human LXRα, 319 nM. Besides, the EC50 in the assay on ABCA1 gene (Homo sapiens, THP-1, 18 h) was 155 nM.

Turning to `CS(=O)(=O)c1cc(F)cc(Oc2ccc(Cl)c(-n3cnc4c(C(F)(F)F)cccc43)c2)c1` [Example 82, 1-{2-chloro-5-[3-fluoro-5-(methylsulfonyl)phenoxy]phenyl}-4-(trifluoromethyl)-1H-benzimidazole], the values for the IC50 on human LXRβ and at human LXRα were 4.9 nM and 102 nM, respectively. The EC50 in the assay with ABCA1 gene (Homo sapiens, THP-1, 18 h) amounted to 1210 nM.

As for `CS(=O)(=O)c1ccc(Oc2ccc(Cl)c(-n3cnc4c(C(F)(F)F)cccc43)c2)cc1` [Example 83, 1-{2-chloro-5-[4-(methylsulfonyl)phenoxy]phenyl}-4-(trifluoromethyl)-1H-benzimidazole], the IC50 on human LXRβ was found to be 33 nM; at human LXRα, 277 nM. In addition, the EC50 with ABCA1 gene (Homo sapiens, THP-1, 18 h) was 110 nM.

Turning to `Cc1cc(Oc2cccc(S(=O)(=O)C(C)C)c2)ccc1-n1c(C)nc2c(C(F)(F)F)cccc21` [Example 95, 2-methyl-1-(2-methyl-4-{3-[(1-methylethyl)sulfonyl]phenoxy}phenyl)-4-(trifluoromethyl)-1H-benzimidazole], the half-maximal inhibitory concentration (IC50) at human LXRβ amounted to 61 nM; on human LXRα, 1290 nM. For the same molecule, the EC50 in the assay on ABCA1 gene (setting [1]) was determined as 409 nM.
